This note sets out measurements from patent US9365613B2, “Acylated 4-amidino- and -4-guanidinobenzylamines for inhibition of plasma kallikrein” (The Medicines Company (Leipzig) GmbH, priority 2003, dated 2016).

Broadly, the Ki is the equilibrium dissociation constant of an inhibitor or competing ligand from its target.

What all share (type): biochemical
One experiment concerns the target thrombin (UniProt P00735). Description: Inhibitory constants for thrombin. To be noted: read-out: Ki Thrombin.
Another experiment addresses T1, human factor XIa (Homo sapiens, UniProt P03951).
T1 construct: purchased Haemochrom Diagnostica GmbH, Essen, Germany
The experiment can be described thus: Inhibitory constants for factor XIa (substrate H-D-Lys(Z)-Pro-Arg-pNA, Chromozym PCa). To be noted: read-out: Ki F XIa. How it is done: (§1) The inhibitory effect for the individual enzymes was determined in analogy with a method which has already been described (Stürzebecher et al., J. Med. Chem. 40, 3091-3099, 1997).
(§2) After 3 min, the reaction was terminated by adding 25 μl of acetic acid (50%) and the absorption at […] was determined using a Microplate Reader (Labsystems iEMS Reader MF). The Ki values were determined, in accordance with Dixon (Biochem. J. 55, 170-171, 1953), by means of linear regression and using a computer program. The Ki values are the mean of at least three determinations.
(§3) The inhibition of factor XIa and factor XIIa was determined in an analogous manner. When determining the inhibitory constants for human factor XIa (Haemochrom Diagnostica GmbH, Essen, Germany), H-D-Lys(Z)-Pro-Arg-pNA (Chromozym PCa, Roche Diagnostics GmbH, Mannheim, Germany) was used as the substrate.

The target of another experiment is T2, human factor XIIa (Homo sapiens, UniProt P00748).
T2 construct: purchased Haemochrom Diagnostica GmbH, Essen, Germany
The experiment can be described thus: Inhibitory constants for factor XIIa (substrate H-D-HHT-Gly-Arg-pNA, Chromozym XII). The conditions noted are these: read-out: Ki F XIIa. How it is done: as §1, §2, §3
H-D-HHT-Gly-Arg-pNA (Chromozym XII, Roche Diagnostics GmbH, Mannheim, Germany) was used as the substrate for measuring the inhibitory constants of human factor XIIa (Haemochrom Diagnostica GmbH, Essen, Germany).

For a further experiment, the target named is plasma kallikrein (PK) (Homo sapiens, UniProt P03952). The experiment can be described thus: Determining the inhibitory constants: inhibition of PK (substrate Bzl-Pro-Phe-Arg-pNA). To be noted: Tris buffer pH 8.0, 25° C.; mean of at least three determinations. The procedure:
as §1, §2

T2 sequence (P00748 373-615 limits assumed, other chains not shown): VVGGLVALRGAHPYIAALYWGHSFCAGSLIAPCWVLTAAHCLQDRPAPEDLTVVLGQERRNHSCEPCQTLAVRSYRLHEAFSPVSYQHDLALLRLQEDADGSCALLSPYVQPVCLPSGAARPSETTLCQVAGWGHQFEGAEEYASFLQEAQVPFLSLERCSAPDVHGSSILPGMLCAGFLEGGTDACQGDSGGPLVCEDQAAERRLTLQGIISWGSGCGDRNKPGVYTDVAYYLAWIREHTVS
T1 sequence (P03951 388-625 limits assumed): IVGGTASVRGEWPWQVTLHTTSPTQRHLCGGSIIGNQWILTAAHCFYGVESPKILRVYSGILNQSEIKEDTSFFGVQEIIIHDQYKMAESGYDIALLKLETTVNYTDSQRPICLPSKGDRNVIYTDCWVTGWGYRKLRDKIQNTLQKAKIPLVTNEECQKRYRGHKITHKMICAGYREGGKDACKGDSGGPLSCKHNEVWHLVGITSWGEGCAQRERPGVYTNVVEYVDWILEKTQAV
T1 sequence (P03951 19-387 partner limits assumed): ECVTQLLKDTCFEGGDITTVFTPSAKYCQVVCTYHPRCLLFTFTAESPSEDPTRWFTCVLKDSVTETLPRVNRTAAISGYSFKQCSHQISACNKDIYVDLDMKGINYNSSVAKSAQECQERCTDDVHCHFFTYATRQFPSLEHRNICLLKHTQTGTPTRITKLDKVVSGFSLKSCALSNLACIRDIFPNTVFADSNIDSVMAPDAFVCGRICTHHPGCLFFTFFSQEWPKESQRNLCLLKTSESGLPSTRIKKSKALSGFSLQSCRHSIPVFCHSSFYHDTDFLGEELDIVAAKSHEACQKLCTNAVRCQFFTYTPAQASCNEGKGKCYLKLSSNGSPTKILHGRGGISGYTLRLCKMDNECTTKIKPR
Chain of plasma kallikrein (PK) (P03952 391-638 limits assumed, species assumed): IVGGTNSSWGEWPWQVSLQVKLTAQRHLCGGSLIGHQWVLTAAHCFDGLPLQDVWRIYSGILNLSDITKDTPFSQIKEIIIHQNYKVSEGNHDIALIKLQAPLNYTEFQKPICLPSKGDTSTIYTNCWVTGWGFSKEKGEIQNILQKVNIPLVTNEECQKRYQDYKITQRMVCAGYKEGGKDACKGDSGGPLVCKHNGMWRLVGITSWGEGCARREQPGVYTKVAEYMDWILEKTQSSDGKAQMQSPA
Chain of plasma kallikrein (PK) (P03952 20-390 partner limits assumed, species assumed): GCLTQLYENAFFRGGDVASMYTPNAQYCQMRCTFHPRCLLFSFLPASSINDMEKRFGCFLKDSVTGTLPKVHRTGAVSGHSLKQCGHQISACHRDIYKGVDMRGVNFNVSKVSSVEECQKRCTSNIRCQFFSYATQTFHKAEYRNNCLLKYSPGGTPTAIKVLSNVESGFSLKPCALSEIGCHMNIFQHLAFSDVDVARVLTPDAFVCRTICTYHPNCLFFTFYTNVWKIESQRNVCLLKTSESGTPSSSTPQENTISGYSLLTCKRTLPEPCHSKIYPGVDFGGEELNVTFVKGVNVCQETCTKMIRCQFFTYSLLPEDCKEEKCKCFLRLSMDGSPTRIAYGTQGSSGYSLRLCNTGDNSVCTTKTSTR

Consider `N=C(N)c1ccc(CNC(=O)[C@H](CCC(=O)OCc2ccccc2)NC(=O)[C@@H](CCc2ccncc2)NS(=O)(=O)Cc2ccccc2)cc1` [Inhibitor 60], for which the Ki at thrombin was 0.17 µM; at human factor XIa it was 0.031 µM; at human factor XIIa it was 0.094 µM; on plasma kallikrein (PK), 0.0055 µM.

With `N=C(N)c1ccc(CNC(=O)[C@H](CNC(=O)OCc2ccccc2)NC(=O)[C@@H](CO)NS(=O)(=O)Cc2ccccc2)cc1` [Inhibitor 9], the Ki on thrombin came to 6.9 µM; at human factor XIa, 0.28 µM; on human factor XIIa it was 13 µM; at plasma kallikrein (PK), 0.042 µM.

Take `N=C(N)c1ccc(CNC(=O)[C@H](CCC(=O)O)NC(=O)[C@@H](CC2CCCCC2)NS(=O)(=O)Cc2ccccc2)cc1` [Inhibitor 57]: the inhibitory constant (Ki) at thrombin was found to be 0.081 µM; at human factor XIa, 0.02 µM; at human factor XIIa, 4 µM; at plasma kallikrein (PK), 0.03 µM.

On to `N=C(N)NCCC[C@H](NC(=O)[C@@H](CO)NS(=O)(=O)Cc1ccccc1)C(=O)NCc1ccc(C(=N)N)cc1` [Inhibitor 12], for which the Ki at thrombin is 4.7 µM; on human factor XIa, 0.77 µM; at human factor XIIa, 16 µM; on plasma kallikrein (PK) it was 0.079 µM.

With `N=C(N)NCCC[C@@H](NS(=O)(=O)Cc1ccccc1)C(=O)NCC(=O)NCc1ccc(C(=N)N)cc1` [Inhibitor 81], the inhibition constant Ki on thrombin is 1.4 µM; on human factor XIa it was 0.7 µM; at human factor XIIa, 0.35 µM; on plasma kallikrein (PK) it was 0.074 µM.

As to `N=C(N)c1ccc(CNC(=O)[C@H](CC(=O)O)NC(=O)[C@@H](CO)NS(=O)(=O)Cc2ccccc2)cc1` [Inhibitor 4], the Ki was over 1000 µM at thrombin, over 1000 µM at human factor XIIa and 3.7 µM at plasma kallikrein (PK).

On to `N=C(N)c1ccc(CNC(=O)[C@H](Cc2ccccc2)NC(=O)[C@@H](CO)NS(=O)(=O)Cc2ccccc2)cc1` [Inhibitor 18], for which the Ki amounted to 1.6 µM at thrombin, 0.92 µM at human factor XIa, 0.97 µM at human factor XIIa and 0.021 µM at plasma kallikrein (PK).

`N=C(N)c1ccc(CNC(=O)[C@H](CCc2ccccc2)NC(=O)[C@@H](CO)NS(=O)(=O)Cc2ccccc2)cc1` [Inhibitor 19]: the Ki at thrombin was 1.2 µM; on human factor XIa, 0.084 µM; on human factor XIIa it was 2.8 µM; at plasma kallikrein (PK), 0.048 µM.

Regarding `CC(C)(C)OC[C@@H](NS(=O)(=O)Cc1ccccc1)C(=O)N[C@@H](Cc1c[nH]cn1)C(=O)NCc1ccc(C(=N)N)cc1` [Inhibitor 64], the results for the inhibition constant (Ki) on thrombin, at human factor XIIa and on plasma kallikrein (PK) were 0.12 µM, 61 µM and 0.014 µM, respectively.

As to `CC(C)(C)OC[C@@H](NS(=O)(=O)Cc1ccc(CN)cc1)C(=O)NCC(=O)NCc1ccc(C(=N)N)cc1` [Inhibitor 50], the inhibitory constant (Ki) at thrombin was 0.12 µM; on human factor XIa, 2.9 µM; on human factor XIIa, 1.8 µM; at plasma kallikrein (PK), 4 µM.

As for `N=C(N)c1ccc(CNC(=O)[C@@H]2CCCN2C(=O)[C@@H](CC2CCCCC2)NS(=O)(=O)Cc2cccc(CNC(=O)CCCC(=O)O)c2)cc1` [Inhibitor 56], the Ki at thrombin is under 0.001 µM; at human factor XIa, 0.052 µM; at human factor XIIa, 5.6 µM; at plasma kallikrein (PK) it was 0.044 µM.

On to `CC(C)(C)OC[C@@H](NS(=O)(=O)Cc1ccc(C(=O)O)cc1)C(=O)N[C@@H](CO)C(=O)NCc1ccc(C(=N)N)cc1` [Inhibitor 65], for which the Ki on thrombin worked out at 2 µM; on human factor XIa it was 0.03 µM; at human factor XIIa, 17 µM; on plasma kallikrein (PK), 0.015 µM.

As for `N=C(N)c1ccc(CNC(=O)CNC(=O)[C@@H](CCc2ccccc2)NS(=O)(=O)Cc2ccc(N)cc2)cc1` [Inhibitor 78], the results for the Ki at human factor XIa, on human factor XIIa and at plasma kallikrein (PK) were 0.12 µM, 0.26 µM and 0.045 µM, respectively.

With `CC(C)(C)OC[C@@H](NS(=O)(=O)Cc1ccccc1)C(=O)N[C@@H](CCc1ccccc1)C(=O)NCc1ccc(C(=N)N)cc1` [Inhibitor 45], the Ki on thrombin turned out to be 0.048 µM; at human factor XIa, 0.083 µM; on human factor XIIa, 1.3 µM; at plasma kallikrein (PK), 0.0045 µM.

`CC(C)(C)OC[C@@H](NS(=O)(=O)Cc1ccccc1)C(=O)N[C@@H](CO)C(=O)NCc1ccc(C(=N)N)cc1` [Inhibitor 40]: the Ki worked out at 0.047 µM on thrombin, 0.2 µM at human factor XIa, 6 µM at human factor XIIa and 0.052 µM at plasma kallikrein (PK).

Take `N=C(N)c1ccc(CNC(=O)[C@H](CCC(=O)O)NC(=O)[C@@H](CO)NS(=O)(=O)Cc2ccccc2)cc1` [Inhibitor 5]: the inhibition constant (Ki) on thrombin was 38 µM; at human factor XIIa it was over 1000 µM; on plasma kallikrein (PK) it was 1.1 µM.

For `N#Cc1cccc(CS(=O)(=O)N[C@H](CC2CCCCC2)C(=O)N2CCC[C@H]2C(=O)NCc2ccc(C(=N)N)cc2)c1` [Inhibitor 52], the inhibition constant (Ki) at thrombin is under 0.001 µM; at human factor XIIa, 13 µM; on plasma kallikrein (PK), 0.086 µM.

In the case of `CC(C)(C)OC[C@@H](NS(=O)(=O)Cc1ccccc1)C(=O)N1CCC[C@H]1C(=O)NCc1ccc(C(=N)N)cc1` [Inhibitor 28], the inhibition constant Ki is 0.002 µM at thrombin, 0.036 µM at human factor XIa, 0.49 µM on human factor XIIa and 0.0065 µM on plasma kallikrein (PK).

As to `N=C(N)c1ccc(CNC(=O)CNC(=O)C(CCc2ccncc2)NS(=O)(=O)Cc2ccccc2)cc1` (stereo not drawn) [Inhibitor 85], the figures for the inhibition constant Ki on human factor XIa, on human factor XIIa and at plasma kallikrein (PK) were 1.1 µM, 0.4 µM and 0.13 µM, respectively.

Regarding `CC(C)(C)OC[C@@H](NS(=O)(=O)Cc1ccc(CC(=O)O)cc1)C(=O)N1CCC[C@H]1C(=O)NCc1ccc(C(=N)N)cc1` [Inhibitor 66], the Ki at thrombin is 0.0018 µM; at human factor XIIa it was 4 µM; at plasma kallikrein (PK), 0.016 µM.

With `N=C(N)c1ccc(CNC(=O)CNC(=O)[C@H](NS(=O)(=O)Cc2ccccc2)C2Cc3ccccc3C2)cc1` [Inhibitor 83], the values for the inhibition constant Ki on thrombin, on human factor XIIa and at plasma kallikrein (PK) were 0.14 µM, 0.37 µM and 0.075 µM, respectively.

Regarding `N=C(N)c1ccc(CNC(=O)[C@H](CO)NC(=O)[C@@H](CCc2ccncc2)NS(=O)(=O)Cc2ccccc2)cc1` [Inhibitor 69], the results for the Ki on thrombin, at human factor XIIa and at plasma kallikrein (PK) were 0.91 µM, 1.6 µM and 0.02 µM, respectively.

As for `N=C(N)c1ccc(CNC(=O)CNC(=O)[C@@H](CCc2ccc(O)cc2)NS(=O)(=O)Cc2ccccc2)cc1` [Inhibitor 75], the inhibition constant (Ki) on human factor XIa is 0.61 µM; at human factor XIIa, 0.78 µM; on plasma kallikrein (PK), 0.12 µM.

As to `N=C(N)c1ccc(CNC(=O)[C@H](CCC(=O)O)NC(=O)[C@@H](CCc2ccc(O)cc2)NS(=O)(=O)Cc2ccccc2)cc1` [Inhibitor 72], the results for the inhibition constant Ki at human factor XIa, on human factor XIIa and on plasma kallikrein (PK) were 0.028 µM, 0.36 µM and 0.22 µM, respectively.

Regarding `CC(C)(C)OC[C@@H](NS(=O)(=O)Cc1ccc(C(=O)O)cc1)C(=O)N1CCC[C@H]1C(=O)NCc1ccc(C(=N)N)cc1` [Inhibitor 70], the inhibitory constant (Ki) was found to be 0.0023 µM at thrombin, 2.4 µM on human factor XIIa and 0.025 µM at plasma kallikrein (PK).

In the case of `C[C@@H](O)[C@H](NC(=O)[C@@H](COC(C)(C)C)NS(=O)(=O)Cc1ccccc1)C(=O)NCc1ccc(C(=N)N)cc1` [Inhibitor 38], the Ki came out at 0.044 µM on thrombin, 14 µM at human factor XIIa and 0.032 µM at plasma kallikrein (PK).

On to `N=C(N)c1ccc(CNC(=O)CNC(=O)[C@@H](CCc2ccccc2)NS(=O)(=O)Cc2ccccc2)cc1` [Inhibitor 76], for which the Ki at human factor XIa stood at 0.27 µM; on human factor XIIa, 0.15 µM; at plasma kallikrein (PK), 0.39 µM.

On to `N=C(N)c1ccc(CNC(=O)[C@H](CCCCNC(=O)CCC(=O)O)NC(=O)[C@@H](CC2CCCCC2)NS(=O)(=O)Cc2ccccc2)cc1` [Inhibitor 71], for which the inhibition constant (Ki) worked out at 0.0021 µM on thrombin, 11 µM at human factor XIIa and 0.029 µM at plasma kallikrein (PK).

As to `N=C(N)c1ccc(CNC(=O)[C@H](CCCCNC(=O)CCCC(=O)O)NC(=O)[C@@H](CO)NS(=O)(=O)Cc2ccccc2)cc1` [Inhibitor 86], the Ki turned out to be 2.8 µM on thrombin and 0.39 µM at plasma kallikrein (PK).

For the compound `N=C(N)c1ccc(CNC(=O)C[C@H](CO)NC(=O)[C@@H](CO)NS(=O)(=O)Cc2ccccc2)cc1` [Inhibitor 17], the Ki on thrombin is 8.5 µM; on human factor XIIa, over 1000 µM; on plasma kallikrein (PK) it was 0.02 µM.

Consider `N=C(N)c1ccc(CNC(=O)[C@H](CO)NC(=O)[C@@H](CCc2ccc(O)cc2)NS(=O)(=O)Cc2ccccc2)cc1` [Inhibitor 73], for which the inhibition constant (Ki) turned out to be 0.078 µM on human factor XIa, 0.28 µM on human factor XIIa and 0.13 µM at plasma kallikrein (PK).

Consider `CC(C)(C)OC[C@@H](NS(=O)(=O)Cc1ccccc1)C(=O)N[C@@H](CCCCNC(=O)C(F)(F)F)C(=O)NCc1ccc(C(=N)N)cc1` [Inhibitor 62], for which the Ki on thrombin turned out to be 0.0029 µM; on human factor XIIa, 6.1 µM; on plasma kallikrein (PK), 0.011 µM.

As for `CC(C)(C)OC[C@@H](NS(=O)(=O)Cc1ccc(C(=O)O)cc1)C(=O)NCC(=O)NCc1ccc(C(=N)N)cc1` [Inhibitor 46], the Ki is 2.2 µM on thrombin, 7.5 µM on human factor XIIa and 0.029 µM at plasma kallikrein (PK).

Consider `CC(C)(C)OC[C@@H](NS(=O)(=O)Cc1ccccc1)C(=O)N[C@@H](CCONC(=N)N)C(=O)NCc1ccc(C(=N)N)cc1` [Inhibitor 68], for which the Ki on thrombin stood at 0.038 µM; on human factor XIIa, 6.8 µM; at plasma kallikrein (PK), 0.019 µM.
